Experimental data taken from PubChem BioAssay (NCI).
Several values for one entry are separate records, joined by “and”; a condition that tells them apart may be missing. Identical values can stand only once.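 Briefly, cells in 96-well plates were exposed to five compound concentrations for 48 h, and endpoints were estimated by linear interpolation. The concentration for 50% growth inhibition is given as GI50. TGI is the concentration that stops growth completely.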

Legend:
Test in all cases: NCI anticancer screen, dose series, 48 h
[1] = system: SN12C renal
[2] = system: SF-539 CNS
[3] = system: UACC-257 melanoma
[4] = system: A549 NSCLC
[5] = system: SK-OV-3 ovarian
[6] = system: IGROV1 ovarian
[7] = system: MOLT-4 leukemia
[8] = system: SNB-19 CNS
[9] = system: OVCAR-4 ovarian
[10] = system: HOP-62 NSCLC

| SMILES | TGI [1] [µM] | TGI [2] [µM] | TGI [3] | TGI [4] | GI50 [5] [µM] | GI50 [6] [µM] | TGI [6] [µM] | TGI [7] [µM] | TGI [8] [µM] | TGI [9] [µM] | TGI [5] [µM] | TGI [10] [µM] | GI50 [1] [µM] | GI50 [8] [µM] | GI50 [2] [µM] | GI50 [3] [µM] | GI50 [4] [µM] | GI50 [7] [µM] | GI50 [10] [µM] | GI50 [9] [µM] |
| --- | --- | --- | --- | --- | --- | --- | --- | --- | --- | --- | --- | --- | --- | --- | --- | --- | --- | --- | --- | --- |
| CC[C@@]1(O)C(=O)OCc2c1cc1n(c2=O)Cc2cc3cc4c(cc3nc2-1)OCO4 | < 0.0125 | 0.0013 | 0.345 µM and 0.259 µM | 0.177 µM and 0.136 µM | < 0.0324 | < 0.0341 | 0.187 | 0.00137 |  |  |  |  |  |  |  |  |  |  |  |  |
| O=C(C/C(=N/O)C(=O)NC1=C(Cl)C(=O)c2ccccc2C1=O)CC(c1ccccc1)c1c(O)c2ccccc2oc1=O (stereo not drawn) | 23.5 | 31.7 | > 100 µM | 35.3 µM |  |  | > 100 | > 100 | > 100 | 22.2 | > 100 |  |  |  |  |  |  |  |  |  |
| C=C1CC2OC(=O)C(=C)C2C(O)C2C(=C)CCC12 (stereo not drawn) | 18.1 | 11.5 | 18.8 µM | 32.2 µM |  |  | 35.5 | 11 | 30.8 |  | 24.9 |  |  |  |  |  |  |  |  |  |
| O=C1C(c2ccccc2)=C(O)c2cccc3cccc1c23 | > 100 | > 100 | > 100 µM | > 100 µM |  |  | > 100 | > 100 | > 100 | > 100 | > 100 |  |  |  |  |  |  |  |  |  |
| COc1c(O)c2c3c(cc(C)cc3c1C(C)C)OC2 | > 100 | > 100 | > 100 µM | > 100 µM |  |  | > 100 | > 100 | > 100 | > 100 | > 100 |  |  |  |  |  |  |  |  |  |
| COc1ccc2c(c1)C(=O)c1ccc(OC)cc1C2=S | > 100 | > 100 | > 100 µM | > 100 µM |  |  | > 100 | > 100 | > 100 |  | > 100 | > 100 |  |  |  |  |  |  |  |  |
| CCOC(C[C@H](O[Si](C)(C)C(C)(C)C)[C@H]1COC(=S)S1)OCC | > 100 | > 100 | > 100 µM | > 100 µM |  |  |  | > 100 | > 100 |  |  | > 100 |  |  |  |  |  |  |  |  |
| CCCCCCCCCCCCCCCC(=O)OCC1OC(n2cc(F)c(=O)[nH]c2=O)C(N)C(O)C1O (stereo not drawn) | 32.4 | 34.8 | 40.7 µM | 33.1 µM |  |  |  | 40.7 | 39.2 | 31.2 | 45.7 | 37.4 |  |  |  |  |  |  |  |  |
| Cc1ccc2c(c1)-c1c3c(nn1-c1ccccc1)-c1ccccc1SC3O2 (stereo not drawn) |  | > 100 | > 100 µM | > 100 µM |  |  | > 100 | > 100 |  |  | > 100 | > 100 |  |  |  |  |  |  |  |  |
| CCOC(=O)/C(C1=NCCN1)=C(\O)c1ccccc1 | > 100 | > 100 | > 100 µM | > 100 µM |  |  | > 100 | > 100 | > 100 | > 100 |  | > 100 |  |  |  |  |  |  |  |  |
| CCCCOC(=O)N1CCN(/[N+]([O-])=N/Oc2ccc([N+](=O)[O-])cc2[N+](=O)[O-])CC1 | 31.5 | 6.11 | 29 µM | 64.2 µM |  | 2.17 | 6.44 | > 100 | 36.8 |  |  | 23.2 | 11 | 15.1 | 2.56 | 13.4 | 21.1 | > 100 | 6.28 |  |
| Cc1ccccc1OCC(O)CN1CCN(c2ccc(Cl)cc2)CC1 (stereo not drawn) | 30.8 | 36.5 | 37.9 µM | 84 µM | 21.2 |  |  | 57.5 | 35.5 | 30.2 | 53.8 | 32.3 | 16 | 17.6 | 19.5 | 20.6 | 30.2 | 14.7 | 15.9 | 16 |
| NC(=O)CN(CC(N)=O)C(N)=O |  | > 100 | > 100 µM | > 100 µM |  |  | > 100 | > 100 | > 100 | > 100 | > 100 |  |  |  |  |  |  |  |  |  |
| CC(=O)[CH-]C(=O)c1ccccc1.CC(=O)[CH-]C(=O)c1ccccc1.CC[O-].CC[O-].[Hf+4] | > 100 | > 100 |  | > 100 µM | > 100 | > 100 | > 100 | > 100 | > 100 | > 100 | > 100 | > 100 | > 100 | > 100 | > 100 |  | > 100 | > 100 | > 100 | > 100 |
| COC1CC(O[C@H]2CC[C@@]3(C)[C@H](CC[C@@H]4[C@@H]3CC[C@]3(C)[C@@H](C5=CC(=O)OC5)[C@@H](OC(C)=O)C[C@]43O)C2)OC(C)C1O (stereo partly drawn) |  | < 0.01 | < 0.01 µM | < 0.01 µM | < 0.01 | < 0.01 | < 0.01 | < 0.01 | < 0.01 | < 0.01 | < 0.01 | < 0.01 |  | < 0.01 | < 0.01 | < 0.01 | < 0.01 | < 0.01 | < 0.01 | < 0.01 |
| COc1ccc2c(CN3CCCC[C@H]3C(=O)O)cc3cc4c(cc3c2c1)OCO4 | 4.31 | 16.2 |  | 4.25 µM | 3.25 |  |  | 2.3 | 5.74 |  | 23.1 | > 100 | 1 | 1.59 | 4.54 |  | 1.1 | 0.278 | 4.33 |  |
| COc1cc(OC)c(C/C=C/c2ccccc2)cc1O | 32.7 | 29.7 | 55.6 µM | 46.6 µM |  |  | 29.9 | 40.5 | 29.3 | 33.5 |  |  |  |  |  |  |  |  |  |  |
| CCCCCCC[CH2][Sn]([CH2]CCCCCCC)([O]c1cccc2cccnc12)[O]c1cccc2cccnc12 | 4.32 | 4.68 | 4.56 µM | 12 µM |  | 2.19 | 5.26 | 3.81 | 9.31 |  |  | 3.67 | 1.96 | 2.94 | 2.05 | 1.56 | 3.18 | 0.595 | 2.11 |  |
| CN(C)CCN1C(=O)c2c(c3c4ccccc4n4c3c3c2c2ccccc2n3C2CC(O)C(O)C4(C)O2)C1=O (stereo not drawn) | 7.87 |  | 9.79 µM | 7.4 µM | 1.8 | 1.41 | 13.1 | 10.9 | 11.8 | 13.6 | 9.9 | 6.73 | 0.914 | 1.58 |  | 3.32 | 0.643 | 0.209 | 1.24 | 2.69 |
